What was measured:
MDA-MB-436 cells = experiment: CTG Protocol (MDA-MB-436 GI50), antiproliferative activity; format: cell-based, human; conditions: Homo sapiens, 168 h; MDA-MB-436 cells (BRCA1 mutation), 7-day incubation, CellTiter-Glo
How it was run: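 BRCA1-mutant MDA-MB-436 cells were seeded at 1000 cells/well in DMEM, left overnight, then exposed to a 9-point, 3-fold compound series for 7 days at 37 °C, 5% CO2. Viability was read by CellTiter-Glo luminescence. % inhibition was plotted against concentration to derive GI50.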

[1] = Liver microsomal stability (HLM); format: in vitro ADME; conditions: human, liver microsomes, human liver microsomes 0.5 mg/mL, 1 μM compound, NADPH

| Compound | GI50 (MDA-MB-436 cells) | microsomal CLint at 1 μM [1] |
| --- | --- | --- |
| COc1ncnc(C2CC2)c1-c1ncc2cc(-c3c(C)noc3C)c(=O)n(Cc3ccc(-c4nc(C(F)(F)F)cn4C4CC4)cc3)c2n1 [Compound I-155] | < 10 nM | < 10 µL/min/mg |
| COc1cc(Cn2c(=O)ccc3c(C)nc(-c4c(OC)ncnc4C4CC4)nc32)ccc1-c1nc(C(F)(F)F)cn1C1CC1 [Compound I-152, 8-({4-[1-cyclopropyl-4-(trifluoromethyl)imidazo]-2-yl]-3-methoxyphenylmethyl)-2-(4-cyclopropyl-6-methoxypyrimidin-5-yl)-4-methylpyrido[2,3-d]pyrimidin-7-one] | < 10 nM | < 10 µL/min/mg |
| COc1ncnc(C2CC2)c1-c1nc(C)c2cc(-c3cnn(C)c3)c(=O)n(Cc3ccc(-c4nc(C(F)(F)F)cn4C4CC4)cc3)c2n1 [Compound I-148, 8-({4-[1-Cyclopropyl-4-(Trifluoromethyl)Imidazol-2-Yl]Phenyl}Methyl)-2-(4-Cyclopropyl-6-Methoxypyrimidin-5-Yl)-4-Methyl-6-(1-Methylpyrazol-4-Yl)Pyrido[2,3-d]Pyrimidin-7-One] | < 10 nM | < 10 µL/min/mg |
| COc1ncnc(C2CC2)c1-c1ncc2ccc(=O)n(Cc3ccc(-c4nc(C(F)(F)F)cn4C(C)C)cc3)c2c1F [Compound I-27, 7-(4-cyclopropyl-6-methoxypyrimidin-5-yl)-8-fluoro-1-({4-[1-isopropyl-4-(trifluoromethyl)imidazol-2-yl]phenyl}methyl)-1,6-naphthyridin-2-one] | 10 to 100 nM | < 10 µL/min/mg |
| COc1ncnc(C2CC2)c1-c1nc(C)c2cc(-c3ncnn3C)c(=O)n(Cc3ccc(-c4nc(C(F)(F)F)cn4C4CC4)cc3)c2n1 [Compound I-167, 8-({4-[1-Cyclopropyl-4-(Trifluoromethyl)Imidazol-2-Yl]Phenyl}Methyl)-2-(4-Cyclopropyl-6-Methoxypyrimidin-5-Yl)-4-Methyl-6-(2-Methyl-1,2,4-Triazol-3-Yl)Pyrido[2,3-d]Pyrimidin-7-One] | 10 to 100 nM | < 10 µL/min/mg |
| COc1ncnc(C2CC2)c1-c1ncc2cc(-c3cnn(C)n3)c(=O)n(Cc3ccc(-c4nc(C(F)(F)F)cn4C4CC4)cc3)c2n1 [Compound I-151] | 10 to 100 nM | < 10 µL/min/mg |
| COc1ncnc(C2CC2)c1-c1ncc2cc(-c3ncnn3C)c(=O)n(Cc3ccc(-c4nc(C(F)(F)F)cn4C4CC4)cc3)c2n1 [Compound I-156] | 10 to 100 nM | < 10 µL/min/mg |
| COc1ncnc(C2CC2)c1-c1ncc2ccc(=O)n(Cc3ccc(-c4cccc(C(F)(F)F)n4)cc3)c2n1 [Compound I-36, 2-(4-cyclopropyl-6-methoxypyrimidin-5-yl)-8-({4-[6-(trifluoromethyl)pyridin-2-yl]phenyl}methyl)pyrido[2,3-d]pyrimidin-7-one] | 10 to 100 nM | 10 to 50 µL/min/mg |
| COc1cc(Cn2c(=O)ccc3c(C)nc(-c4c(OC)ncnc4C4CC4)nc32)cc(F)c1-c1nc(C(F)(F)F)cn1C1CC1 [Compound I-163] | < 10 nM | < 10 µL/min/mg |
| COc1ncnc(C2CC2)c1-c1nc(C)c2cc(C3CCN(C)CC3)c(=O)n(Cc3ccc(-c4nc(C(F)(F)F)cn4C4CC4)cc3)c2n1 [Compound I-157, 8-({4-[1-Cyclopropyl-4-(Trifluoromethyl)Imidazol-2-Yl]Phenyl}Methyl)-2-(4-Cyclopropyl-6-Methoxypyrimidin-5-Yl)-4-Methyl-6-(1-Methylpiperidin-4-Yl)Pyrido[2,3-d]Pyrimidin-7-One] | < 10 nM | < 10 µL/min/mg |
| COc1ncnc(C2CC2)c1-c1ncc2cc(-c3ncnn3C)c(=O)n(Cc3ccc(-c4nc(C(F)(F)F)cn4C(C)C)cc3)c2n1 [Compound I-168, 2-(4-Cyclopropyl-6-Methoxypyrimidin-5-Yl)-8-({4-[1-Isopropyl-4-(Trifluoromethyl)Imidazol-2-Yl]Phenyl}Methyl)-6-(2-Methyl-1,2,4-Triazol-3-Yl)Pyrido[2,3-d]Pyrimidin-7-One] | 10 to 100 nM | < 10 µL/min/mg |
| COc1ncnc(C2CC2)c1-c1ncc2cc(-c3cn(C)nn3)c(=O)n(Cc3ccc(-c4nc(C(F)(F)F)cn4C4CC4)cc3)c2n1 [Compound I-150] | 10 to 100 nM | < 10 µL/min/mg |
| COc1ncnc(C2CC2)c1-c1ncc2cc(-c3ncn(C)n3)c(=O)n(Cc3ccc(-c4nc(C(F)(F)F)cn4C4CC4)cc3)c2n1 [Compound I-153, 8-({4-[1-cyclopropyl-4-(trifluoromethyl)imidazo]-2-yl]phenylmethyl)-2-(4-cyclopropyl-6-methoxypyrimidin-5-yl)-6-(1-methyl-1,2,4-triazol-3-yl)pyrido[2,3-d]pyrimidin-7-one] | 10 to 100 nM | < 10 µL/min/mg |
